Test results published in US20210283163A1, “COMPOSITIONS AND METHODS FOR THE TREATMENT OF ACUTE AND CHRONIC PRURITIS” (Duke University, priority 2018, published 2021).

Experiments:
[1] = tested on: DRG neurons; experiment: Calcium imaging in cultured DRG neurons of Pirt-GCaMP3 mice; type: cell-based, mouse; conditions: for DRG neurons showing Ca2+ increase / responses: 544 neurons from 3 mice
Method: Primary Cultures of Mouse and Human Sensory Neurons. […] Cells were mechanically dissociated with a flame polished Pasteur pipette in the presence of 0.05% DNase I (Sigma).
Ca^2+ Imaging. […] The imaging buffer includes 140 mM NaCl, 10 mM D-(+)-Glucose, 1 mM MgCl2, 2 mM CaCl2, 5 mM KCl, 10 mM HEPES, pH=7.4, osmolarity=320 mOsm/L. Calcium signals were measured using green emitted light in a 3 s interval. Ca ^2+ signal amplitudes were presented as ΔF/F0=(Ft−F0)/F0 as ratio of fluorescence difference (Ft−F0) to basal value (F0). The average fluorescence intensity in the baseline period was taken as F0. Ca ^2+ imaging was also analyzed in HEK293-TRPA1 cell line after loading cells with […] fura2-AM (Invitrogen) for 40 min in the Ca^2+ imaging buffer. Ca^2+ imaging protocol was a ratio metric method with 340/380-nm wavelength light for dual excitation. Data were presented as ΔR/R0, determined as the fraction ΔR (Rt−R0) of the increase of a given ratio over baseline ratio (R0).

[2] = tested on: small-diameter DRG neurons; experiment: Patch clamp, inward currents and action potentials in small-diameter mouse DRG neurons; type: cell-based; conditions: for small-diameter neurons responding with inward currents or action potentials: AITC 15/90, miR-711 15/130
Method: Primary Cultures of Mouse and Human Sensory Neurons. DRGs or TGs were removed aseptically from mice (4-6 weeks) and incubated with collagenase (1.25 mg/mL, Roche)/dispase-II (2.4 units/mL, Roche) at 37° C. for 90 min, then digested with 0.25% trypsin for 8 min at 37° C., followed by 0.25% trypsin inhibitor. Cells were mechanically dissociated with a flame polished Pasteur pipette in the presence of 0.05% DNase I (Sigma). DRG cells were plated on glass coverslips and grown in a neurobasal defined medium (with 2% B27 supplement, Invitrogen) with 5 μM AraC and 5% CO2 at 36.5° C. DRG neurons were grown for 24 hr before use.
(§1) Whole-Cell Patch Clamp Recordings in HEK293 Cells, CHO Cells, and DRG Neurons. Whole-cell patch clamp recordings were performed at room temperature using an Axopatch-200B amplifier (Axon Instruments) with a Digidata 1440B (Axon Instruments). In this study, we only examined small-diameter mouse DRG neurons (<25 μM) and small-diameter human DRG neurons (<55 μM). The patch pipettes were pulled from borosilicate capillaries (World Precision Instruments) using a P-97 Flaming/Brown micropipette puller (Sutter Instrument). Pipette resistance was 4-6 MΩ for whole-cell and outside-out recording. For inward current recordings in mouse and human DRG neurons, HEK293 cells, and CHO cells, the internal solution contains (in mM): 140 CsCl, 10 EGTA, 10 HEPES, and 2 Mg-ATP, adjusted to pH 7.3 with CsOH. Whole cell recordings were performed in an extracellular solution that contains (in mM): 140 NaCl, 5 KCl, 2 MgCl2, 10 HEPES, and 10 glucose, adjusted to pH 7.4 with NaOH and osmolarity to 300-310 mOsm. […] Action potential recordings were performed in small-diameter DRG neurons, with the following solutions: i) internal pipette solution contains: 126 mM K-gluconate, 10 mM NaCl, 1 mM MgCl2, 10 mM EGTA, 10 mM HEPES and 2 mM Na-ATP, adjusted to pH 7.4 with KOH and osmolarity to 295-300 mOsm), and ii) extracellular solution contains: 140 mM NaCl, 5 mM KCl, 2 mM MgCl2, 2 mM CaCl2, 10 mM HEPES, 10 mM glucose, adjusted to pH 7.4 with KOH.

[3] = target: T1, hTRPA1 (Homo sapiens, UniProt O75762); experiment: Whole-cell patch clamp, inward currents in HEK293 cells expressing hTRPA1; type: cell-based
Method: Cell Culture and Transfection. CD4^+ Myla cell line was cultured in RPMI 1640 media (GIBCO), supplemented with 2 mM Glutamine (GIBCO), 100 U/mL IL-2 (Sigma), 100 U/mL IL-4 (Sigma), and 10% human AB serum (Sigma). HuT 102 cell line was cultured in RPMI 1640 supplemented with pyruvate, HEPES, and 10% (v/v) fetal bovine serum (HyClone). HEK293-hTRPA1 stable cell line was cultured in MEM (GIBCO) containing 2 mM Glutamine, 4 μg/mL Blasticidin, 10% FBS (v/v). B16 and CHO cells were cultured in high glucose (4.5 g/L) Dulbecco's Modified Eagle's Medium (GIBCO) containing 10% (v/v) fetal bovine serum (GIBCO). Culture media were supplemented with 50 units/mL of penicillin and 50 μg/mL streptomycin, and cultures were maintained with 5% CO2 in 37° C. incubator. Transfection (2 μg cDNA) was performed with Lipofectamine™ 2000 Reagent (Invitrogen) at 80% confluency and the transfected cells were cultured in the same media for 48 hr before electrophysiological and biochemical studies.
as §1

[4] = target: T1, hTRPA1; experiment: RNA pull-down assay and immunoblotting; type: binding
Method: RNA Pull-Down Assay and Immunoblotting. hTRPA1-expressing HEK293 cells of equal amount (5×10^6) were plated onto 60 mm dishes, and 24 hr later, these cells were incubated with biotin-conjugated miR-711 or miR-711 (m6) in extracellular solution containing 140 mM NaCl, 5 mM KCl, 2 mM CaCl2, 1 mM MgCl2, 10 mM HEPES, and 10 mM glucose, adjusted to pH 7.4 for 15 min at 37° C. with 5% CO2. For crosslinking, 1% formaldehyde (vol/vol) was added at 37° C. for 10 min, then 12.5% glycine was applied to stop crosslinking by 5 min incubation at room temperature. Then the cells were collected and sonicated with ultrosonic probe sonicator (80% output, 5 s on and 10 s off) in 1 mL lysis buffer (1% Triton X-100, 50 mM Tris-HCl, 150 mM NaCl, 5 mM EDTA, pH7.4) on ice for 2 min. We then centrifuged the lysate at 13,000 rpm for 10 min at 4° C. and took 50 μL supernatant as lysate control. The remaining supernatant was added 20 μL streptadvilin agrose beads and incubated overnight. The pellets were collected after centrifuge at 6000 rmp for 30 s. For competing assay, miR-711 (10-50 μM) or mutant miR-711 (m6, 10-50 μM) were added 15 min before the incubation with biotin-conjugated miR-711 (10 μM). For immunoblotting, the lysates or beads were incubated in SDS-PAGE loading buffer for 30 min at 50° C., and supernatant was collected after centrifugation at 13000 rpm and decrosslink at 99° C. for 20 min. The samples were separated on an SDS-PAGE gel, transferred, and probed with TRPA1 antibody (1:1000; Alomone labs). The immunoreactive bands were detected with horseradish peroxidase-conjugated secondary antibody, visualized with enhanced chemiluminescence (Thermo scientific, Pittsburgh, Pa.), and quantified with Image-Pro Plus software (Media Cybernetics, Bethesda, Md.). Each experiment was repeated at least three times.

[5] = miR-711 50 μM, histamine 500 μM, CQ 1,000 μM, AITC 200 μM

T1 sequence (O75762 whole entry): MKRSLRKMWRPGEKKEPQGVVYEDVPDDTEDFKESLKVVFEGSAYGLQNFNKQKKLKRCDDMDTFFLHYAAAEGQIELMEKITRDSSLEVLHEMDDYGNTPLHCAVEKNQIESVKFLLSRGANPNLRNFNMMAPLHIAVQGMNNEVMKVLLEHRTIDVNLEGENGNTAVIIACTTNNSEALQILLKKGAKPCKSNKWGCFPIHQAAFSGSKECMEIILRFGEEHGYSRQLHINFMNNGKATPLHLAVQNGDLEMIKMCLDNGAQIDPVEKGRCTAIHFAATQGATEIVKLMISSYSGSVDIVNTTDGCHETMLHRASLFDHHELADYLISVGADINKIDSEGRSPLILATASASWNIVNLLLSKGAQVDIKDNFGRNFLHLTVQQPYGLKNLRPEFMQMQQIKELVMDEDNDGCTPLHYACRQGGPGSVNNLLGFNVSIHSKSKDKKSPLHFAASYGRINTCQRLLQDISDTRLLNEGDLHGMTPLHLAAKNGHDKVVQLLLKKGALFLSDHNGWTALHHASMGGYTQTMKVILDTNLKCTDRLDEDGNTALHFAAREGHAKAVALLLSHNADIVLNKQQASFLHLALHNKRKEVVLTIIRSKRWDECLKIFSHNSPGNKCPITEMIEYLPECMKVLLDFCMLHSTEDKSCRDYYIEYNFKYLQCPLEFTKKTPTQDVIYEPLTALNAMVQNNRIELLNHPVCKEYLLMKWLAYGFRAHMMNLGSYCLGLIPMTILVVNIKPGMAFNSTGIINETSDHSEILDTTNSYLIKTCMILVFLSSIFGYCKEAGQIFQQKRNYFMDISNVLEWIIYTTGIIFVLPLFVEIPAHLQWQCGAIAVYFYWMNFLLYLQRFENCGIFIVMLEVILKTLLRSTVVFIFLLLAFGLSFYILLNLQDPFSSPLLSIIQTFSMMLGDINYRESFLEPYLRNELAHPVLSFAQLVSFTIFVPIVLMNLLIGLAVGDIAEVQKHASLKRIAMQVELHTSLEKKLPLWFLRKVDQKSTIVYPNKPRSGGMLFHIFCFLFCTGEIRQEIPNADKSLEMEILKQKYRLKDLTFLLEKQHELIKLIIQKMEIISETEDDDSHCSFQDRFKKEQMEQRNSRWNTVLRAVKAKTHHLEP

C=CCN=C=S [AITC]
miR-711-responsive DRG neurons that also responded ([1]; histamine 500 μM, CQ 1,000 μM, AITC 200 μM): all
DRG neurons showing Ca2+ increase / responses [1, 5]: 22.6%
small-diameter neurons responding with inward currents or action potentials [2]: 16.7%

CCC(=N\O)/C(C)=C/c1ccc(F)cc1 [A967079, (1E,3E)-1-(4-Fluorophenyl)-2-methyl-1-pentene-3-one oxime]
block of miR-711-evoked calcium responses in DRG neurons ([1]; miR-711 50 μM, A967079 10 μM): completely blocked
block of miR-711-evoked currents ([3]; A967079 10 and 50 μM): dose-dependently blocked
block of miR-711-induced action potentials ([2]; A967079 10 μM): blocked
block of miR-711-induced inward currents in DRG neurons ([2]; A967079 10 μM): blocked

miR-711: mmu-miR-711: gggacccggggagagauguaag (SEQ ID NO: 5) (GGGACCCGGGGAGAGAUGUAAG; chemistry not given here)
competition with binding of biotin-labeled miR-711 to TRPA1 ([4]; 10-50 μM added 15 min before biotin-conjugated miR-711 (10 μM)): inhibited the binding
calcium signaling in DRG neurons ([1]; 10 μM): did not evoke meaningful calcium signaling
DRG neurons showing Ca2+ increase / responses [1, 5]: 3.9%
DRG neurons showing calcium responses ([1]; miR-711 50 μM, 15 of 310 neurons): 4.8%
desensitization of TRPA1 after second application ([3]; 10 μM): did not induce obvious desensitization
current-voltage relationship ([3]; 10 μM, I/V curve): outward rectification
reversal potential of evoked current ([3]; 10 μM, I/V curve): 0 mV
inward currents ([3]; bath application, miRNAs and core sequence 10 μM, AITC 50 μM): produced inward currents
potency for inducing TRPA1 activation (dose-response curve) ([3]; compared with AITC): more potent than AITC
latency of inward currents ([3]; miR-711 10 μM versus AITC 50 μM, bath perfusion): shorter than that of AITC
action potentials in small-diameter DRG neurons ([2]; 10 μM, WT mice): induced action potentials
inward currents in small-diameter DRG neurons ([2]; 10 μM, WT mice): induced rapid inward currents
small-diameter neurons responding with inward currents or action potentials [2]: 11.5%
miR-711-induced excitation (action potentials) ([2]; TRPA1-deficient neurons): lost
miR-711-induced inward currents in DRG neurons of knockout mice ([2]; Trpa1 knockout mice): abolished
action potential duration ([2]; compared with AITC): shorter duration
after-hyperpolarization of the action potentials ([2]; compared with AITC): did not differ

NH2-FRNELAYPVLTFGQL-COOH (H-FRNELAYPVLTFGQL-OH) [blocking peptide]
disruption of the miR-711/TRPA1 interaction ([4]; RNA pull-down): disrupted the miR-711/TRPA1 interaction
effect on AITC-induced inward current ([3]; peptide 25 μM): did not affect
inhibition of miR-711-induced TRPA1 inward currents ([3]; peptide 25 μM): suppressed
